# Laboratory results reported in US6350585B1, “Reagent for assay of amylase isozyme activity” (priority 1998, dated 2002).
# Legend:
# [1] = target: T1, S-type amylase (Calibzyme S) (Homo sapiens, UniProt P0DUB6); assay: amylase isozyme activity assay with sodium azide as activator, S-type amylase sample; format: biochemical; conditions: for Change in absorbance, Containing Antibody (Composition C) / Change in absorbance, Without antibody (Composition D) / Relative sensitivity / Percent residual enzyme activity: S-type amylase; for Relative sensitivity: G3CNP at 300 mM = 100; for Percent residual enzyme activity: composition C/D
# T1 construct: purchased International Reagents Corporation Calibzyme S
# T1 sequence (P0DUB6 16-511): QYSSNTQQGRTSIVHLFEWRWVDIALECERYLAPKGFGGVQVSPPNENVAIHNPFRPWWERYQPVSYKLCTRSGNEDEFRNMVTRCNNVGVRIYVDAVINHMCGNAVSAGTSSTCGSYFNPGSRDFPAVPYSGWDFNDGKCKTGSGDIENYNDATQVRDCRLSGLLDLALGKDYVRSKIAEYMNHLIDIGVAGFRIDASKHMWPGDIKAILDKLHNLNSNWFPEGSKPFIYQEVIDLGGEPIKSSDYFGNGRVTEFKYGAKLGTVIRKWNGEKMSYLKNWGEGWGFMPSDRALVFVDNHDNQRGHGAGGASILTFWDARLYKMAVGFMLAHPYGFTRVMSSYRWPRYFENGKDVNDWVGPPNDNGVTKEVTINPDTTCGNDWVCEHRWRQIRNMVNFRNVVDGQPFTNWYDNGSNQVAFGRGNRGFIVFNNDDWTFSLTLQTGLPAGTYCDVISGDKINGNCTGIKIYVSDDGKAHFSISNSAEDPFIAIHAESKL
# Protocol: (§1) S-type amylase inhibitory antibody 88E8 (manufactured by Roche Diagnostics K.K.) 20 mg/L
# (§2) S-type amylase inhibitory antibody 66C7 (manufactured by Roche Diagnostics K.K.) 5 mg/L
# (§3) Substrate (GalG2CNP (Example) or G3CNP (Comparative Example)) 2.6 mM
# (3) S-type Amylase (Calibzyme S, Manufactured by International Reagents Corporation)
# (§4) Each of the above-mentioned samples (0.05 mL) was added to respective reagent C and D (3 mL) and the mixtures were left standing at 37° C. for 3 minutes. Then, change in absorbance at 405 nm was assayed and change in absorbance per minute was calculated.
# (§5) In the Tables, P is the case where P-type amylase was used as the sample, and S is the case where S-type amylase was used. The relative sensitivity of P and S is based on the change in absorbance of G3CNP as 100, wherein sodium azide was 300 mM.
# (§6) Percent residual enzyme activity and relative sensitivity were calculated by the following formulas.
# (§7) Percent residual enzyme activity (%)=(change in absorbance of composition C)/(change in absorbance of composition D)×100
# (§8) Relative sensitivity (%)=(change in absorbance of composition D)/(change in absorbance of Comparative Example wherein sodium azide was 300 mM)×100
# [2] = target: T2, P-type amylase (Calibzyme P) (Homo sapiens, UniProt P04746); assay: amylase isozyme activity assay with sodium azide as activator, P-type amylase sample; format: biochemical; conditions: for Percent residual enzyme activity: composition C/D
# T2 construct: purchased International Reagents Corporation Calibzyme P
# T2 sequence (P04746 16-511): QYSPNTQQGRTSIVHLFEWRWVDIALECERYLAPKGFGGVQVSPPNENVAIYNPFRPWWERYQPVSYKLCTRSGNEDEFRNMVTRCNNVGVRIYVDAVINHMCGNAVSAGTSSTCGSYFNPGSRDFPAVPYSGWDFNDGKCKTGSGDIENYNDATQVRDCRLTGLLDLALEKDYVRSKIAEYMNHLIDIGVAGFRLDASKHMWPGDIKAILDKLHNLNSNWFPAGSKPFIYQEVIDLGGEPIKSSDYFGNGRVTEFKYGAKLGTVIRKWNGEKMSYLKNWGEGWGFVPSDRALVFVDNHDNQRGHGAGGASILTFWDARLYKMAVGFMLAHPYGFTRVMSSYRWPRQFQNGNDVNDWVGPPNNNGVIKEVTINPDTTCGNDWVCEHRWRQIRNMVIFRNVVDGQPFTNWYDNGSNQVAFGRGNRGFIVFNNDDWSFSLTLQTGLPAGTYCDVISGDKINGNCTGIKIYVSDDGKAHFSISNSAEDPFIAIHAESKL
# Protocol: as §1, §2, §3
# (2) P-type Amylase (Calibzyme P, Manufactured by International Reagents Corporation)
# as §4, §5, §6, §7, §8
structure (smiles),measurement,setting,value
"O=[N+]([O-])c1ccc(O[C@H]2O[C@H](CO)[C@@H](O[C@H]3O[C@H](CO)[C@@H](O[C@H]4O[C@H](CO)[C@@H](O)[C@H](O)[C@H]4O)[C@H](O)[C@H]3O)[C@H](O)[C@H]2O)c(Cl)c1 [Example G3CNP, 2-chloro-4-nitrophenylmaltotrioside, reference compound]","Change in absorbance, Containing Antibody (Composition C)",[1]; sodium azide 0 mM,0.3 mABS/min
same,"Change in absorbance, Without antibody (Composition D)",[1]; sodium azide 0 mM,4.7 mABS/min
same,Relative sensitivity,[1]; sodium azide 0 mM,10.2%
same,Percent residual enzyme activity,[1]; sodium azide 0 mM,6.4%
same,"Change in absorbance, Containing Antibody (Composition C)",[1]; sodium azide 30 mM,0.9 mABS/min
same,"Change in absorbance, Without antibody (Composition D)",[1]; sodium azide 30 mM,15.7 mABS/min
same,Relative sensitivity,[1]; sodium azide 30 mM,34.2%
same,Percent residual enzyme activity,[1]; sodium azide 30 mM,5.7%
same,"Change in absorbance, Containing Antibody (Composition C)",[1]; sodium azide 60 mM,1.0 mABS/min
same,"Change in absorbance, Without antibody (Composition D)",[1]; sodium azide 60 mM,22.4 mABS/min
same,Relative sensitivity,[1]; sodium azide 60 mM,48.8%
same,Percent residual enzyme activity,[1]; sodium azide 60 mM,4.5%
same,"Change in absorbance, Containing Antibody (Composition C)",[1]; sodium azide 90 mM,1.6 mABS/min
same,"Change in absorbance, Without antibody (Composition D)",[1]; sodium azide 90 mM,28.6 mABS/min
same,Relative sensitivity,[1]; sodium azide 90 mM,62.3%
same,Percent residual enzyme activity,[1]; sodium azide 90 mM,5.6%
same,"Change in absorbance, Containing Antibody (Composition C)",[1]; sodium azide 120 mM,1.5 mABS/min
same,"Change in absorbance, Without antibody (Composition D)",[1]; sodium azide 120 mM,31.0 mABS/min
same,Relative sensitivity,[1]; sodium azide 120 mM,67.5%
same,Percent residual enzyme activity,[1]; sodium azide 120 mM,4.8%
same,"Change in absorbance, Containing Antibody (Composition C)",[1]; sodium azide 150 mM,1.6 mABS/min
same,"Change in absorbance, Without antibody (Composition D)",[1]; sodium azide 150 mM,35.8 mABS/min
same,Relative sensitivity,[1]; sodium azide 150 mM,78.0%
same,Percent residual enzyme activity,[1]; sodium azide 150 mM,4.5%
same,"Change in absorbance, Containing Antibody (Composition C)",[1]; sodium azide 200 mM,1.9 mABS/min
same,"Change in absorbance, Without antibody (Composition D)",[1]; sodium azide 200 mM,41.1 mABS/min
same,Relative sensitivity,[1]; sodium azide 200 mM,89.5%
same,Percent residual enzyme activity,[1]; sodium azide 200 mM,4.6%
same,"Change in absorbance, Containing Antibody (Composition C)",[1]; sodium azide 250 mM,2.2 mABS/min
same,"Change in absorbance, Without antibody (Composition D)",[1]; sodium azide 250 mM,44.5 mABS/min
same,Relative sensitivity,[1]; sodium azide 250 mM,96.9%
same,Percent residual enzyme activity,[1]; sodium azide 250 mM,4.9%
same,"Change in absorbance, Containing Antibody (Composition C)",[1]; sodium azide 300 mM,2.3 mABS/min
same,"Change in absorbance, Without antibody (Composition D)",[1]; sodium azide 300 mM,45.9 mABS/min
same,Relative sensitivity,[1]; sodium azide 300 mM,100.0%
same,Percent residual enzyme activity,[1]; sodium azide 300 mM,5.0%
same,percent inhibition of S-type amylase,"[1]; irrespective of sodium azide concentrations, FIG. 4 and FIG. 5",around 95%
same,"Change in absorbance, Containing Antibody (Composition C)",[2]; sodium azide 0 mM,9.4 mABS/min
same,"Change in absorbance, Without antibody (Composition D)",[2]; sodium azide 0 mM,9.4 mABS/min
same,Relative sensitivity,"[2]; sodium azide 0 mM, G3CNP at 300 mM = 100",20.6%
same,Percent residual enzyme activity,[2]; sodium azide 0 mM,100.0%
same,"Change in absorbance, Containing Antibody (Composition C)",[2]; sodium azide 30 mM,19.8 mABS/min
same,"Change in absorbance, Without antibody (Composition D)",[2]; sodium azide 30 mM,20.5 mABS/min
same,Relative sensitivity,"[2]; sodium azide 30 mM, G3CNP at 300 mM = 100",45.0%
same,Relative sensitivity,"[2]; sodium azide 30 mM, G3CNP at 300 mM = 100, listed as Comparative Example 2",about 45%
same,Percent residual enzyme activity,[2]; sodium azide 30 mM,96.6%
same,"Change in absorbance, Containing Antibody (Composition C)",[2]; sodium azide 60 mM,26.3 mABS/min
same,"Change in absorbance, Without antibody (Composition D)",[2]; sodium azide 60 mM,26.0 mABS/min
same,Relative sensitivity,"[2]; sodium azide 60 mM, G3CNP at 300 mM = 100",57.0%
same,Percent residual enzyme activity,[2]; sodium azide 60 mM,101.2%
same,"Change in absorbance, Containing Antibody (Composition C)",[2]; sodium azide 90 mM,31.8 mABS/min
same,"Change in absorbance, Without antibody (Composition D)",[2]; sodium azide 90 mM,32.0 mABS/min
same,Relative sensitivity,"[2]; sodium azide 90 mM, G3CNP at 300 mM = 100",70.2%
same,Percent residual enzyme activity,[2]; sodium azide 90 mM,99.4%
same,"Change in absorbance, Containing Antibody (Composition C)",[2]; sodium azide 120 mM,35.3 mABS/min
same,"Change in absorbance, Without antibody (Composition D)",[2]; sodium azide 120 mM,33.7 mABS/min
same,Relative sensitivity,"[2]; sodium azide 120 mM, G3CNP at 300 mM = 100",73.9%
same,Percent residual enzyme activity,[2]; sodium azide 120 mM,104.7%
same,"Change in absorbance, Containing Antibody (Composition C)",[2]; sodium azide 150 mM,37.5 mABS/min
same,"Change in absorbance, Without antibody (Composition D)",[2]; sodium azide 150 mM,37.1 mABS/min
same,Relative sensitivity,"[2]; sodium azide 150 mM, G3CNP at 300 mM = 100",81.4%
same,Percent residual enzyme activity,[2]; sodium azide 150 mM,101.1%
same,"Change in absorbance, Containing Antibody (Composition C)",[2]; sodium azide 200 mM,40.9 mABS/min
same,"Change in absorbance, Without antibody (Composition D)",[2]; sodium azide 200 mM,41.3 mABS/min
same,Relative sensitivity,"[2]; sodium azide 200 mM, G3CNP at 300 mM = 100",90.6%
same,Percent residual enzyme activity,[2]; sodium azide 200 mM,99.0%
same,"Change in absorbance, Containing Antibody (Composition C)",[2]; sodium azide 250 mM,43.6 mABS/min
same,"Change in absorbance, Without antibody (Composition D)",[2]; sodium azide 250 mM,42.8 mABS/min
same,Relative sensitivity,"[2]; sodium azide 250 mM, G3CNP at 300 mM = 100",93.9%
same,Percent residual enzyme activity,[2]; sodium azide 250 mM,101.9%
same,"Change in absorbance, Containing Antibody (Composition C)",[2]; sodium azide 300 mM,45.4 mABS/min
same,"Change in absorbance, Without antibody (Composition D)",[2]; sodium azide 300 mM,45.6 mABS/min
same,Relative sensitivity,"[2]; sodium azide 300 mM, G3CNP at 300 mM = 100",100.0%
same,Percent residual enzyme activity,[2]; sodium azide 300 mM,99.6%
